Values after ≈ are worked out from the molar mass of the structure shown. Active and inactive are the calls of the source. The calls are words filed in the database; no cut-off is given here.
Key:
[1] = target: T1, Protein cereblon/Tyrosine-protein kinase BTK (Homo sapiens, UniProt Q06187+Q96SW2); assay: PROTAC activity at CRBN/BTK in human Ramos cells assessed as induction of BTK degradation at 100 nM pretreated with pomalidomide for 2 hrs followed by compound treatment and measured after 8 hrs by Western blot analysis; assay type: cell-based
Target sequence in this assay (Q06187 2-659 limits assumed): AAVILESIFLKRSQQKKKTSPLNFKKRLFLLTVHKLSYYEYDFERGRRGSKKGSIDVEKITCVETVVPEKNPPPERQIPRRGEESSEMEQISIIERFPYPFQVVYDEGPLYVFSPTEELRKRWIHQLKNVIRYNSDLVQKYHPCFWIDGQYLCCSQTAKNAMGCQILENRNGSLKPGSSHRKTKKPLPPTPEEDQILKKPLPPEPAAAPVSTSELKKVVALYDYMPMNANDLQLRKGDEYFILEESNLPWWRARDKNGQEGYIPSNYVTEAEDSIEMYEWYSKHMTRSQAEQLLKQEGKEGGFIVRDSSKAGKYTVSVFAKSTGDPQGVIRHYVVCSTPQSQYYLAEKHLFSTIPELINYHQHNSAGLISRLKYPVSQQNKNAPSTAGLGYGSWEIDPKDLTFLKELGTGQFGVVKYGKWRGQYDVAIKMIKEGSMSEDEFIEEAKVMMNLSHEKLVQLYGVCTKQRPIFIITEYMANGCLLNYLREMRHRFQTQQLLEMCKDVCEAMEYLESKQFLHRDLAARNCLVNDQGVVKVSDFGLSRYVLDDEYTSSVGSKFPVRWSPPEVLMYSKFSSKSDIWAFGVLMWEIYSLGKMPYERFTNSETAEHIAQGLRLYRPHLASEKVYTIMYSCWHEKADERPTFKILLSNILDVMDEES
Target sequence in this assay (Q96SW2 whole entry partner): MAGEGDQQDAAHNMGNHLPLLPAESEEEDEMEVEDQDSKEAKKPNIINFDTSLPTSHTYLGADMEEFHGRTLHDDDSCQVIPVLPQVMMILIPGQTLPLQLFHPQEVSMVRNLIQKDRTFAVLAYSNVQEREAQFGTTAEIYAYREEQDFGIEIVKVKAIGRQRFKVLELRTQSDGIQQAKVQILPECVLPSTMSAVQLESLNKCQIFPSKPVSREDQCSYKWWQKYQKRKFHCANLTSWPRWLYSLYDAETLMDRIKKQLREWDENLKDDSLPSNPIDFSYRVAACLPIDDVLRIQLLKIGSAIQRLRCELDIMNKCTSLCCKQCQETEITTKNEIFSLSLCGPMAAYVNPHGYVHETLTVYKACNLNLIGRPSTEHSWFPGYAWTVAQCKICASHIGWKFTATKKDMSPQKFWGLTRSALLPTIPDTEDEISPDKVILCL

[2] = target: T1, Protein cereblon/Tyrosine-protein kinase BTK; assay: PROTAC activity at CRBN/BTK in human Ramos cells assessed as induction of BTK degradation at 100 nM incubated for 24 hrs by Western blot analysis relative to control; assay type: cell-based
Target sequence in this assay (Q06187 2-659 limits assumed): as the sequence (Q06187 2-659 limits assumed) above
Target sequence in this assay (Q96SW2 whole entry partner): as the sequence (Q96SW2 whole entry partner) above

[3] = target: T1, Protein cereblon/Tyrosine-protein kinase BTK; assay: PROTAC activity at CRBN/BTK in human MINO cells assessed as induction of BTK degradation incubated for 24 hrs by Western blot analysis; assay type: cell-based
Target sequence in this assay (Q06187 whole entry): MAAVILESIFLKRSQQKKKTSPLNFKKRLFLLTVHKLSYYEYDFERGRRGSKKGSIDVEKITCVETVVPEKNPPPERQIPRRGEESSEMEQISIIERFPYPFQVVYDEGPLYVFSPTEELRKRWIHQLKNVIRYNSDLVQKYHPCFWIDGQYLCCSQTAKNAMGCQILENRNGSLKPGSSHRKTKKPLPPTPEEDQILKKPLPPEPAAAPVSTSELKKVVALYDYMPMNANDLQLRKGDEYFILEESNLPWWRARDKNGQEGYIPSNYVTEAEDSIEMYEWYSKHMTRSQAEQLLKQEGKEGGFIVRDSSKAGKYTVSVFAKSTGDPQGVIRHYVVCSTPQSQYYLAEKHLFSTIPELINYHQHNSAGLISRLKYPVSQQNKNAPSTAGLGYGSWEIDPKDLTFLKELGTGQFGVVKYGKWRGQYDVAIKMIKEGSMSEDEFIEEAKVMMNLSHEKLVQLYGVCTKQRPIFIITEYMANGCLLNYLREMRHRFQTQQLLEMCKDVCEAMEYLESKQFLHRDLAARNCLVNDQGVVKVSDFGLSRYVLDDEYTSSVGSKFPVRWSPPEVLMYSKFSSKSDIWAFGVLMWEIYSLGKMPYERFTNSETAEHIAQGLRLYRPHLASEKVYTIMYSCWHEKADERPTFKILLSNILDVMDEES
Target sequence in this assay (Q96SW2 whole entry): as the sequence (Q96SW2 whole entry partner) above

[4] = target: Protein cereblon/Tyrosine-protein kinase BTK (Mus musculus) (UniProt P35991+Q8C7D2); assay: PROTAC activity at CRBN/BTK in mouse RAW264.7 cells assessed as induction of BTK degradation by Western blot analysis; assay type: cell-based; settings: dose 0.1-10 µM
Chain of Protein cereblon/Tyrosine-protein kinase BTK (Mus musculus) (P35991 whole entry, looked up): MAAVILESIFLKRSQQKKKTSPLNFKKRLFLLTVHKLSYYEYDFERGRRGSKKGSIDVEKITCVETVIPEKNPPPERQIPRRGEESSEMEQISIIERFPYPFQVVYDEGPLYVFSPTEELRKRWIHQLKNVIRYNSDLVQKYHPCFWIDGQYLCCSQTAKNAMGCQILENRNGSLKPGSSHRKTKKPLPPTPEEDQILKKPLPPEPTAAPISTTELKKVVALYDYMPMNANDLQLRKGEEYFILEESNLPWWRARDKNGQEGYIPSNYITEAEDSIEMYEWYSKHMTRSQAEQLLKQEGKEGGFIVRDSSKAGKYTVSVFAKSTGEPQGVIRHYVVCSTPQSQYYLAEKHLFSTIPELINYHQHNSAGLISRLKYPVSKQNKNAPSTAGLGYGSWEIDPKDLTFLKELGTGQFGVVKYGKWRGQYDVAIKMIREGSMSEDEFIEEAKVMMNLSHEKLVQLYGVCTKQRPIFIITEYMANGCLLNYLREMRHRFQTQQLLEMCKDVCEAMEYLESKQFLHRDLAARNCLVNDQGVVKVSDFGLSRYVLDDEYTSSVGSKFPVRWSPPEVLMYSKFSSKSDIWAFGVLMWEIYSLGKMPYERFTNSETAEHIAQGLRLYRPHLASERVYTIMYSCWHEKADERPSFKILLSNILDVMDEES
Chain of Protein cereblon/Tyrosine-protein kinase BTK (Mus musculus) (Q8C7D2 whole entry, looked up): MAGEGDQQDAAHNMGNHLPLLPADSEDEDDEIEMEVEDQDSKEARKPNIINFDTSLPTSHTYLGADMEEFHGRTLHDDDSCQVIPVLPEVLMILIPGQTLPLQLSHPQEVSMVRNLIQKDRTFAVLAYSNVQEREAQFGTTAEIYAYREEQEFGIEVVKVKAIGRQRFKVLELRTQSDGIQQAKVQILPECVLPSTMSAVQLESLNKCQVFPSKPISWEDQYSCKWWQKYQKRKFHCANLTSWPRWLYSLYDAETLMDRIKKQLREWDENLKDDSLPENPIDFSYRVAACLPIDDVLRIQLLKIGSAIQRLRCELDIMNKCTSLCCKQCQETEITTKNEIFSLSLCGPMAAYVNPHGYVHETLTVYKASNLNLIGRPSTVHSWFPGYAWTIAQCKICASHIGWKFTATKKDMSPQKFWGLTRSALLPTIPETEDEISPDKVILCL

[5] = MRT (0 to infinity) in Sprague-Dawley rat at 20 mg/kg, po by UPLC analysis; assay type: ADME, organism-based; settings: in vivo
[6] = system: RAW264.7; assay: Anti-inflammatory activity in LPS-stimulated mouse RAW264.7 cells assessed as reduction in IL-6 secretion at 0.1 to 10 uM preincubated with compound for 2 hrs followed by LPS stimulation and measured after 3 hrs by ELISA analysis; assay type: functional, cell-based; settings: dose 0.1-10 µM, time 5.0 hrs
[7] = target: T1, Protein cereblon/Tyrosine-protein kinase BTK; assay: PROTAC activity at CRBN/BTK in human Ramos cells assessed as induction of BTK degradation incubated for 24 hrs by Western blot analysis; assay type: cell-based
Target sequence in this assay (Q06187 whole entry): as the sequence (Q06187 whole entry) above
Target sequence in this assay (Q96SW2 whole entry): as the sequence (Q96SW2 whole entry partner) above

[8] = Cmax in Sprague-Dawley rat at 2 mg/kg, iv measured after 48 hrs by UPLC analysis; assay type: ADME, organism-based; settings: in vivo
[9] = system: RAW264.7; assay: Cytotoxicity against mouse RAW264.7 cells assessed as reduction in cell viability upto 10 uM incubated for 24 hrs by CCK8 assay; assay type: toxicity, cell-based; settings: raw264.7, 24 h
[10] = AUC (0 to t) in Sprague-Dawley rat at 20 mg/kg, po by UPLC analysis; assay type: ADME, organism-based; settings: in vivo
[11] = Cmax in Sprague-Dawley rat at 20 mg/kg, po by UPLC analysis; assay type: ADME, organism-based; settings: in vivo
[12] = target: T1, Protein cereblon/Tyrosine-protein kinase BTK; assay: PROTAC activity at CRBN/BTK in human Ramos cells assessed as induction of BTK degradation at 100 nM pretreated with compound for 24 hrs followed by compound washout and measured upto 48 hrs by Western blot analysis; assay type: cell-based
Target sequence in this assay (Q06187 2-659 limits assumed): as the sequence (Q06187 2-659 limits assumed) above
Target sequence in this assay (Q96SW2 whole entry partner): as the sequence (Q96SW2 whole entry partner) above

[13] = target: T1, Protein cereblon/Tyrosine-protein kinase BTK; assay: PROTAC activity at CRBN/BTK in human Ramos cells assessed as induction of BTK degradation by measuring maximal efficacy incubated for 24 hrs by Western blot analysis relative to control; assay type: cell-based
Target sequence in this assay (Q06187 2-659 limits assumed): as the sequence (Q06187 2-659 limits assumed) above
Target sequence in this assay (Q96SW2 whole entry partner): as the sequence (Q96SW2 whole entry partner) above

[14] = system: Mus musculus; assay: (§1) Anti-inflammatory activity in zymosan-induced peritonitis C57BL/6J mouse model assessed as decrease in IL-1beta level in peritoneal cavity preadministered intraperitoneally with compound for 1 hrs followed by zymosan administration and measured after 16 hrs by ELISA; assay type: functional, organism-based; settings: dose 10-50 mg/kg, route ip, time 17.0 hrs
[15] = AUC (0 to t) in Sprague-Dawley rat at 2 mg/kg, iv measured after 48 hrs by UPLC analysis; assay type: ADME, organism-based; settings: in vivo
[16] = target: T1, Protein cereblon/Tyrosine-protein kinase BTK; assay: PROTAC activity at CRBN/BTK in human Ramos cells assessed as induction of BTK degradation at 100 nM pretreated with bafilomycin for 2 hrs followed by compound treatment and measured after 8 hrs by Western blot analysis; assay type: cell-based
Target sequence in this assay (Q06187 2-659 limits assumed): as the sequence (Q06187 2-659 limits assumed) above
Target sequence in this assay (Q96SW2 whole entry partner): as the sequence (Q96SW2 whole entry partner) above

[17] = target: T1, Protein cereblon/Tyrosine-protein kinase BTK; assay: PROTAC activity at CRBN/BTK in human Ramos cells assessed as induction of BTK degradation at 100 nM pretreated with MG132 for 2 hrs followed by compound treatment and measured after 8 hrs by Western blot analysis; assay type: cell-based
Target sequence in this assay (Q06187 2-659 limits assumed): as the sequence (Q06187 2-659 limits assumed) above
Target sequence in this assay (Q96SW2 whole entry partner): as the sequence (Q96SW2 whole entry partner) above

[18] = system: RAW264.7; assay: Inhibition of NF-kappaB activation in LPS-stimulated mouse RAW264.7 cells assessed as reduction in phosphorylated BTK level at 0.1 to 10 uM preincubated with compound for 1 hrs followed by LPS stimulation and measured after 24 hrs by Western blot analysis; assay type: cell-based; settings: dose 0.1-10 µM, time 25.0 hrs
[19] = Clearance in Sprague-Dawley rat at 2 mg/kg, iv measured after 48 hrs by UPLC analysis; assay type: ADME, organism-based; settings: in vivo
[20] = system: RAW264.7; assay: Inhibition of NF-kappaB activation in LPS-stimulated mouse RAW264.7 cells assessed as reduction in phosphorylated p65 level at 0.1 to 10 uM preincubated with compound for 1 hrs followed by LPS stimulation and measured after 24 hrs by Western blot analysis; assay type: cell-based; settings: dose 0.1-10 µM, time 25.0 hrs
[21] = MRT (0 to infinity) in Sprague-Dawley rat at 2 mg/kg, iv measured after 48 hrs by UPLC analysis; assay type: ADME, organism-based; settings: in vivo
[22] = target: T1, Protein cereblon/Tyrosine-protein kinase BTK; assay: PROTAC activity at CRBN/BTK in human Ramos cells assessed as hook effect at 10000 nM incubated for 24 hrs by Western blot analysis; assay type: cell-based
[23] = Oral bioavailability in Sprague-Dawley rat at 20 mg/kg by UPLC analysis; assay type: ADME, organism-based; settings: in vivo
[24] = MRT (0 to t) in Sprague-Dawley rat at 20 mg/kg, po by UPLC analysis; assay type: ADME, organism-based; settings: in vivo
[25] = MRT (0 to t) in Sprague-Dawley rat at 2 mg/kg, iv measured after 48 hrs by UPLC analysis; assay type: ADME, organism-based; settings: in vivo
[26] = Half-life in Sprague-Dawley rat at 20 mg/kg, po by UPLC analysis; assay type: ADME, organism-based; settings: in vivo
[27] = Apparent volume of distribution in Sprague-Dawley rat at 2 mg/kg, iv measured after 48 hrs by UPLC analysis; assay type: ADME, organism-based; settings: in vivo, read-out: Vz
[28] = system: Mus musculus; assay: Anti-inflammatory activity in zymosan-induced peritonitis C57BL/6J mouse model assessed as decrease in IL-6 level in peritoneal cavity preadministered intraperitoneally with compound for 1 hrs followed by zymosan administration and measured after 16 hrs by ELISA; assay type: functional, organism-based; settings: dose 10-50 mg/kg, route ip, time 17.0 hrs
[29] = AUC (0 to infinity) in Sprague-Dawley rat at 20 mg/kg, po by UPLC analysis; assay type: ADME, organism-based; settings: in vivo
[30] = system: RAW264.7; assay: Anti-inflammatory activity in LPS-stimulated mouse RAW264.7 cells assessed as reduction in IL-6 mRNA level preincubated with compound for 2 hrs followed by LPS stimulation and measured after 3 hrs […]; assay type: functional, cell-based; settings: dose 0.1-10 µM, time 5.0 hrs
[31] = AUC (0 to infinity) in Sprague-Dawley rat at 2 mg/kg, iv measured after 48 hrs by UPLC analysis; assay type: ADME, organism-based; settings: in vivo
[32] = Aqueous solubility of compound incubated for 24 hrs by HPLC based shake flask method; assay type: physicochemical; settings: buffer
[33] = target: T1, Protein cereblon/Tyrosine-protein kinase BTK; assay: PROTAC activity at CRBN/BTK in human Ramos cells assessed as induction of BTK degradation at 100 nM measured within 4 hrs by Western blot analysis; assay type: cell-based
[34] = target: T1, Protein cereblon/Tyrosine-protein kinase BTK; assay: PROTAC activity at CRBN/BTK in human Ramos cells assessed as induction of BTK degradation at 100 nM measured after 8 hrs by Western blot analysis relative to control; assay type: cell-based
[35] = system: RAW264.7; assay: Inhibition of NF-kappaB activation in LPS-stimulated mouse RAW264.7 cells assessed as prevention of IkappaB-alpha degradation at 0.1 to 10 uM preincubated with compound for 1 hrs followed by LPS stimulation and measured after 24 hrs by Western blot analysis; assay type: cell-based; settings: dose 0.1-10 µM, time 25.0 hrs
[36] = system: RAW264.7; assay: Anti-inflammatory activity in LPS-stimulated mouse RAW264.7 cells assessed as reduction in IL-1beta secretion at 0.1 to 10 uM preincubated with compound for 2 hrs followed by LPS stimulation and measured after 3 hrs by ELISA analysis; assay type: functional, cell-based; settings: dose 0.1-10 µM, time 5.0 hrs
[37] = system: RAW264.7; assay: Inhibition of NF-kappaB activation in LPS-stimulated mouse RAW264.7 cells assessed as inhibition of IkappaB-alpha phosphorylation at 0.1 to 10 uM preincubated with compound for 1 hrs followed by LPS stimulation and measured after 24 hrs by Western blot analysis; assay type: cell-based; settings: dose 0.1-10 µM, time 25.0 hrs
[38] = system: RAW264.7; assay: Anti-inflammatory activity in LPS-stimulated mouse RAW264.7 cells assessed as reduction in IL-1beta mRNA level preincubated with compound for 2 hrs followed by LPS stimulation and measured after 3 hrs […]; assay type: functional, cell-based; settings: dose 0.1-10 µM, time 5.0 hrs
[39] = target: T1, Protein cereblon/Tyrosine-protein kinase BTK; assay: PROTAC activity at CRBN/BTK in human MINO cells assessed as induction of BTK degradation by measuring maximal efficacy incubated for 24 hrs by Western blot analysis relative to control; assay type: cell-based
[40] = Half-life in Sprague-Dawley rat at 2 mg/kg, iv measured after 48 hrs by UPLC analysis; assay type: ADME, organism-based; settings: in vivo
[41] = system: Mus musculus; assay: as §1, with “reduction” for “decrease”, “myeloid cells” for “IL-1beta level”, “trypan blue staining based optical microscopic analysis” for “ELISA”; assay type: functional, organism-based; settings: dose 10-50 mg/kg, route ip, time 17.0 hrs
[42] = target: T1, Protein cereblon/Tyrosine-protein kinase BTK; assay: PROTAC activity at CRBN/BTK in human Ramos cells assessed as induction of BTK degradation at 100 nM pretreated with ibrutinib for 2 hrs followed by compound treatment and measured after 8 hrs by Western blot analysis; assay type: cell-based
[43] = target: T1, Protein cereblon/Tyrosine-protein kinase BTK; assay: PROTAC activity at CRBN/BTK in human MINO cells assessed as hook effect upto 10000 nM incubated for 24 hrs by Western blot analysis; assay type: cell-based

Activity [1]: inactive
Activity [2]: 99.4%
EC50 [3]: 7.07 nM
Activity [4]: Dose-Dependent Effect
MRT inf [5]: 5.23 h
EC50 [7]: 3.18 nM
Cmax [8]: 1890 ng/mL
AUC(0-t) [10]: 27.1 ng·h/mL
Cmax [11]: 9.7 ng/mL
Activity [12]: Active
Emax [13]: 99.9%
AUC(0-t) at 48 h [15]: 926 ng·h/mL
Activity [16]: Active
Activity [17]: inactive
clearance [19]: 37.5 mL/min/kg
MRT inf [21]: 1.37 h
Activity [22]: Active
bioavailability [23]: 0.25%
MRT last [24]: 4.95 h
MRT last at 48 h [25]: 1.27 h
half-life [26]: 2.12 h
Vd [27]: 5.85 L/kg
AUC(0-inf) [29]: 29 ng·h/mL
AUC(0-inf) [31]: 934 ng·h/mL
solubility thermodynamic at 24 h [32]: 8.16 µg/mL (≈ 9.74 µM)
Activity [33]: Active
Activity [34]: 100%
Emax [39]: 100%
half-life [40]: 1.82 h
Activity [42]: inactive
Activity [43]: inactive
SMILES: Nc1ncnc2c1c(-c1ccc(Oc3ccccc3)cc1)nn2C1CCN(C(=O)CN2CCN(CC3CN(c4ccc5c(c4)C(=O)N(C4CCC(=O)NC4=O)C5=O)C3)CC2)CC1 (stereo not drawn)
Activity [6]: Active
Activity [9]: Non-Toxic
Activity [14]: Dose-Dependent Effect
inhibition [18]: Active
inhibition [20]: Active
Activity [28]: Dose-Dependent Effect
Activity [30]: Dose-Dependent Effect
inhibition [35]: Active
Activity [36]: Active
inhibition [37]: Active
Activity [38]: Dose-Dependent Effect
Activity [41]: Dose-Dependent Effect

Source: ChEMBL document CHEMBL5625192, “Discovery of Ibrutinib-based BTK PROTACs with in vivo anti-inflammatory efficacy by inhibiting NF-κB activation” (Eur J Med Chem, 2023)
